# Laboratory results published in patent EP2593528B1, “LIQUID-C[…] WITH STABILIZER” (Merck Patent GmbH, priority 2010, dated 2012).
# Assay: Liquid-crystalline properties of single compounds, determined at 10% in nematic host mixture ZLI-4792
# Type: physicochemical
# Details: 10% in host mixture ZLI-4792
# Experimental: Außerdem werden folgende Abkürzungen und Symbole verwendet: Vo Schwellenspannung, kapazitiv [V] bei 20°C, V10 optische Schwelle für 10 % relativen Kontrast [V] bei 20°C, ne außerordentlicher Brechungsindex bei 20°C und 589 nm, no ordentlicher Brechungsindex bei 20°C und 589 nm, Δn optische Anisotropie bei 20°C und 589 nm, ε⊥ dielektrische Suszeptibilität senkrecht zum Direktor bei 20°C und 1 kHz, ε∥ dielektrische Suszeptibilität parallel zum Direktor bei 20°C und 1 kHz, Δε dielektrische Anisotropie bei 20°C und 1 kHz, Kp., T(N,I) Klärpunkt [°C], γ1 Rotationsviskosität bei 20°C [mPa·s], K1 elastische Konstante, "splay"-Deformation bei 20°C [pN], K2 elastische Konstante, "twist"-Deformation bei 20°C [pN], K3 elastische Konstante, "bend"-Deformation bei 20°C [pN], LTS "low temperature stability" (Phase), bestimmt in Testzellen, ton Einschaltzeit [Transmissionsänderung von 10 % auf 90 %) bei 20 °C und definierter Operationsspannung, toff Ausschaltzeit [Transmissionsänderung von 90 % auf 10 %) bei 20 °C, RT Reaktionszeit (ton + toff) HR20 "voltage holding ratio" bei 20°C [%] und HR100 "voltage holding ratio" bei 100°C [%].
# Alle physikalischen Eigenschaften werden und wurden nach "Merck Liquid Crystals, Physical Properties of Liquid Crystals", Status Nov. 1997, Merck KGaA, Darmstadt, Deutschland bestimmt und gelten für eine Temperatur von 20°C und An wird bei 589 nm und Δε bei 1 kHz bestimmt, sofern nicht jeweils explizit anders angegeben.
# Die flüssigkristallinen Eigenschaften der Einzelverbindungen werden, soweit nicht anders angegeben, in der nematischen Wirtsmischung ZLI-4792 (kommerziell erhältlich von Merck KGaA, Darmstadt) bei einer Konzentration von 10% bestimmt.
structure (smiles),measurement,setting,value
"CCCc1ccc(-c2cc(F)c(-c3ccc(C)s3)c(F)c2)cc1 [PUS-3-1, 2-(3,5-Difluor-4'-propyl-biphenyl-4-yl)-5-methyl-thiophen]",Δε,dielectric anisotropy at 20°C and 1 kHz,"+3,1"
same,Δn,optical anisotropy at 20°C and 589 nm,"0,3055"
same,γ1,rotational viscosity at 20°C,102 mPa·s
